What was measured:
Test in all cases: NCI one-dose assay
Assay type in all cases: cell-based
MOLT-4 = details: Homo sapiens, MOLT-4, Leukemia, read-out: Cell growth inhibition %
EKVX = details: Homo sapiens, Non-small cell lung cancer, read-out: Cell growth inhibition %
SN12C = details: Homo sapiens, Renal cancer, read-out: Cell growth inhibition %
NCI-H460 = details: Homo sapiens, NCI-H460, Non-small cell lung cancer, read-out: Cell growth inhibition %
BT-549 = details: Homo sapiens, BT-549, Breast cancer, read-out: Cell growth inhibition %
ACHN = details: Homo sapiens, Renal cancer, read-out: Cell growth inhibition %
PC-3 = details: Homo sapiens, PC-3, Prostate cancer, read-out: Cell growth inhibition %
CAKI-1 = details: Homo sapiens, CAKI-1, Renal cancer, read-out: Cell growth inhibition %
SK-OV-3 = details: Homo sapiens, SK-OV-3, Ovarian cancer, read-out: Cell growth inhibition %
MDA-MB-231/ATCC = details: Homo sapiens, Breast cancer, read-out: Cell growth inhibition %
UACC-62 = details: Homo sapiens, UACC-62, Melanoma, read-out: Cell growth inhibition %
KM12 = details: Homo sapiens, KM12, Colon cancer, read-out: Cell growth inhibition %
MALME-3M = details: Homo sapiens, Melanoma, read-out: Cell growth inhibition %
K-562 = details: Homo sapiens, K562, K-562, Leukemia, read-out: Cell growth inhibition %
NCI-H522 = details: Homo sapiens, NCI-H522, Non-small cell lung cancer, read-out: Cell growth inhibition %
SR = details: Homo sapiens, Leukemia, read-out: Cell growth inhibition %
SK-MEL-28 = details: Homo sapiens, SK-MEL-28, Melanoma, read-out: Cell growth inhibition %
CCRF-CEM = details: Homo sapiens, Leukemia, read-out: Cell growth inhibition %
NCI/ADR-RES = details: Homo sapiens, Ovarian cancer, read-out: Cell growth inhibition %
A549/ATCC = details: Homo sapiens, Non-small cell lung cancer, read-out: Cell growth inhibition %
HCT-15 = details: Homo sapiens, HCT-15, Colon cancer, read-out: Cell growth inhibition %
OVCAR-5 = details: Homo sapiens, OVCAR-5, Ovarian cancer, read-out: Cell growth inhibition %
RPMI-8226 = details: Homo sapiens, RPMI-8226, Leukemia, read-out: Cell growth inhibition %
HL-60(TB) = details: Homo sapiens, Leukemia, read-out: Cell growth inhibition %
SF-539 = details: Homo sapiens, SF-539, CNS cancer, read-out: Cell growth inhibition %
NCI-H23 = details: Homo sapiens, NCI-H23, Non-small cell lung cancer, read-out: Cell growth inhibition %
U251 = details: Homo sapiens, U-251, U251, CNS cancer, read-out: Cell growth inhibition %
IGROV1 = details: Homo sapiens, IGROV-1, IGROV1, Ovarian cancer, read-out: Cell growth inhibition %
COLO 205 = details: Homo sapiens, COLO 205, Colon cancer, read-out: Cell growth inhibition %
DU-145 = details: Homo sapiens, DU-145, Prostate cancer, read-out: Cell growth inhibition %
OVCAR-3 = details: Homo sapiens, OVCAR-3, Ovarian cancer, read-out: Cell growth inhibition %
NCI-H226 = details: Homo sapiens, NCI-H226, Non-small cell lung cancer, read-out: Cell growth inhibition %
HS 578 T = details: Homo sapiens, Breast cancer, read-out: Cell growth inhibition %
UACC-257 = details: Homo sapiens, UACC-257, Melanoma, read-out: Cell growth inhibition %
HCC-2998 = details: Homo sapiens, HCC-2998, Colon cancer, read-out: Cell growth inhibition %
HCT-116 = details: Homo sapiens, HCT-116, Colon cancer, read-out: Cell growth inhibition %
SF-295 = details: Homo sapiens, SF-295, CNS cancer, read-out: Cell growth inhibition %

| SMILES | inhibition at 10 µM (MOLT-4) | inhibition at 10 µM (EKVX) | inhibition at 10 µM (SN12C) | inhibition at 10 µM (NCI-H460) | inhibition at 10 µM (BT-549) | inhibition at 10 µM (ACHN) | inhibition at 10 µM (PC-3) | inhibition at 10 µM (CAKI-1) | inhibition at 10 µM (SK-OV-3) | inhibition at 10 µM (MDA-MB-231/ATCC) | inhibition at 10 µM (UACC-62) | inhibition at 10 µM (KM12) | inhibition at 10 µM (MALME-3M) | inhibition at 10 µM (K-562) | inhibition at 10 µM (NCI-H522) | inhibition at 10 µM (SR) | inhibition at 10 µM (SK-MEL-28) | inhibition at 10 µM (CCRF-CEM) | inhibition at 10 µM (NCI/ADR-RES) | inhibition at 10 µM (A549/ATCC) | further results |
| --- | --- | --- | --- | --- | --- | --- | --- | --- | --- | --- | --- | --- | --- | --- | --- | --- | --- | --- | --- | --- | --- |
| O/N=C(\CSc1nnc(-c2c[nH]c3ccccc23)n1-c1ccccc1)c1ccc(Br)cc1 [Compound 7i, (Z)-2-((5-(1H-Indol-3-yl)-4-phenyl-4H-1,2,4-triazol-3-yl)thio)-1-(4-bromophenyl) Ethanone Oxime] | 119% | 163% | 177% | 122% | 173% | 184% | 164% | 194% | 150% | 184% | 190% | 97.9% | 110% | 111% | 130% | 98.7% | 126% | 106% | 174% | 118% | inhibition at 10 µM (HCT-15): 193%; inhibition at 10 µM (OVCAR-5): 183%; inhibition at 10 µM (RPMI-8226): 113%; inhibition at 10 µM (HL-60(TB)): 136%; inhibition at 10 µM (SF-539): 165%; inhibition at 10 µM (NCI-H23): 85.9%; inhibition at 10 µM (U251): 90.3%; inhibition at 10 µM (IGROV1): 165%; inhibition at 10 µM (COLO 205): 141%; inhibition at 10 µM (DU-145): 188%; inhibition at 10 µM (OVCAR-3): 99.3%; inhibition at 10 µM (NCI-H226): 93.7%; inhibition at 10 µM (HS 578 T): 139%; inhibition at 10 µM (UACC-257): 109%; inhibition at 10 µM (HCC-2998): 166%; inhibition at 10 µM (HCT-116): 136%; inhibition at 10 µM (SF-295): 115% |
| O/N=C(\CSc1nnc(-c2c[nH]c3ccccc23)n1-c1ccccc1)c1ccc(Cl)cc1 [Compound 7j, (Z)-2-((5-(1H-Indol-3-yl)-4-phenyl-4H-1,2,4-triazol-3-yl)thio)-1-(4-chlorophenyl) Ethanone Oxime] | 107% | 98% | 116% | 89.5% | 167% | 96.7% | 138% | 111% | 102% | 155% | 143% | 78.6% | 88.9% | 93.1% | 87.6% | 87.2% | 78.8% | 105% | 170% | 78.5% | inhibition at 10 µM (HCT-15): 148%; inhibition at 10 µM (OVCAR-5): 143%; inhibition at 10 µM (RPMI-8226): 113%; inhibition at 10 µM (HL-60(TB)): 126%; inhibition at 10 µM (SF-539): 70.5%; inhibition at 10 µM (NCI-H23): 52.7%; inhibition at 10 µM (U251): 69.5%; inhibition at 10 µM (IGROV1): 134%; inhibition at 10 µM (COLO 205): 89.8%; inhibition at 10 µM (DU-145): 131%; inhibition at 10 µM (OVCAR-3): 65.8%; inhibition at 10 µM (NCI-H226): 85.7%; inhibition at 10 µM (HS 578 T): 132%; inhibition at 10 µM (UACC-257): 55.7%; inhibition at 10 µM (HCC-2998): 83%; inhibition at 10 µM (HCT-116): 99.3%; inhibition at 10 µM (SF-295): 85.9% |

Reference: article PMC11859928, “Design, Synthesis, and Antiproliferative Activity of Novel Indole/1,2,4-Triazole Hybrids as Tubulin Polymerization Inhibitors” (Pharmaceuticals, 2025)
